Measurements published in US7504420B2, “Compounds which inhibit beta-secretase activity and methods of use” (CoMentis, Inc., priority 2005, dated 2009).

Tests used:
memapsin 2 = memapsin 2 (Homo sapiens, UniProt P56817); assay: Inhibition of memapsin 2 catalytic activity (Ki); type: biochemical; details: memapsin 2, pH 4, 37° C.; read-out: M2K
Summary of the method: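 Run at 37 °C and pH 4: compound and enzyme pre-incubated 20 min before FS-2 fluorogenic substrate started hydrolysis,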

cathepsin D = cathepsin D (Homo sapiens, UniProt P07339); assay: Inhibition of cathepsin D catalytic activity (Ki); type: biochemical; details: pH 4.0, 37° C., read-out: CDK
Chain of cathepsin D (P07339 65-412, species assumed): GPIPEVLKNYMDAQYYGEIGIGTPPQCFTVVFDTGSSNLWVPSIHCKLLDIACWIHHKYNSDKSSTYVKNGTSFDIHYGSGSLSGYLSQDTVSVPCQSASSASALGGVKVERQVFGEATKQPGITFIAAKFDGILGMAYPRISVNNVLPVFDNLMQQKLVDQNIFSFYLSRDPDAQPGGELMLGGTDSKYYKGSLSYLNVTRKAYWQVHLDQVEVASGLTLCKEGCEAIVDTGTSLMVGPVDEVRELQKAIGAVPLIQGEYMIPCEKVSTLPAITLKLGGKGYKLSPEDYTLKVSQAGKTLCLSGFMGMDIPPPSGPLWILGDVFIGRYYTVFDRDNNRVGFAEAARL

memapsin 1 = molecular target: T1, memapsin 1 (Homo sapiens, UniProt Q9Y5Z0); assay: Inhibition of memapsin 1 catalytic activity (Ki); type: biochemical; details: memapsin 1, pH 4.0, 37° C.; read-out: M1K
T1 sequence (Q9Y5Z0 63-518): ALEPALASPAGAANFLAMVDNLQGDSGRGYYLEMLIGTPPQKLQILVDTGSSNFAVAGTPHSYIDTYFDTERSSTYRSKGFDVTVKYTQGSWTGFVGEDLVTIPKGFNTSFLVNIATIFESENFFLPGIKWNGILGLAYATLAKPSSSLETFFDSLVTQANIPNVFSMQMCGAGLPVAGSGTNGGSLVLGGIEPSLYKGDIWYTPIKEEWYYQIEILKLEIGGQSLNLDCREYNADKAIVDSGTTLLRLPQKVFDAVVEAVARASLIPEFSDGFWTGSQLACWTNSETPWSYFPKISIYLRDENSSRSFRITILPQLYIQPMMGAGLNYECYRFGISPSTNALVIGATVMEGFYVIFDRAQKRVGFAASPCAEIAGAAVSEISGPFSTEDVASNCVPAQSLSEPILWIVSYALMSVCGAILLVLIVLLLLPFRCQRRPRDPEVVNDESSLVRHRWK
Experimental: A substrate peptide NH3-ELDLAVEFWHDR-CO2 (SEQ ID NO.:1) (used for inhibition assay of memapsin 2, memapsin 1, and cathepsin D) was dissolved at 2 mg/ml in DMSO and diluted 1:100 in 0.1 M sodium acetate, pH 4.0 just prior to assay. Inhibitor dissolved in DMSO was diluted into 0.1 M sodium acetate, pH 4.0 (1:100 dilution). A […] aliquot of the inhibitor solution in pH 4 buffer was combined with […] of 0.1 M sodium acetate containing 100-200 nM of memapsin 1, memapsin 2, or cathepsin D. Following a pre-incubation at 37° C., the proteolytic assay was initated by addition of […] of the substrate diluted into pH 4 buffer, and incubation continued at 37° C. Aliquots were removed at time intervals, and combined with an equal volume of MALDI-TOF matrix (α-hydroxycinnamic acid in acetone, 20 mg/ml) and immediately spotted in duplicate onto a stainless-steel MALDI sample plate. MALDI-TOF mass spectrometry was performed on a PE Biosystems Voyager DE instrument at the Molecular Biology Resource Center on campus. The instrument was operated at 25,000 accelerating volts in positive mode with a 150 ns delay. Ions with a mass-to-charge ratio (m/z) were detected in the range of 650-2000 atomic mass units. Data were analyzed by the Voyager Data Explorer module to obtain ion intensity data for mass species of substrates and corresponding products in a given mixture. Relative product formation was calculated as the ratio of signal intensity of the product to the sum of signal intensities of both product and the corresponding substrate. Relative product formed per unit time was obtained from non-linear regression analysis of the data representing the initial 15% formation of product using the model: 1−e^−kT, where k was the relative hydrolytic rate constant and T was time in seconds. Alternatively, relative hydrolytic rates were determined using a fluorogenic cleavage assay (Ermolieff, J. et al., Biochemistry, 39: 12450-12456 (2000)). Initial rates from either method were expressed relative to uninhibited controls and the inhibition constant Ki was determined by a non-linear fit to a tight-binding model of competitive inhibition (Bieth, J., Bayer-Symposium V: Proteinase Inhibitors, pp 463-469, Spinger-Varlag, Berlin (1994)). Results are shown in Table 1 above (M2K, CDK, and M1K columns represent, respectively, the K1 values obtained for memapsin 2, cathepsin D and memapsin 1).

[1] = tested on: Aβ production in Chinese hamster ovary cells that over-express human APP695 with the London and Swedish mutations; assay: Cellular Aβ IC50 determination (Aβ40 sandwich ELISA); details: Cricetulus griseus, CHO, 24 h, read-out: Cell, Aβ40, CHO cells over-expressing human APP695 (London and Swedish mutations), 24 h

Chain of memapsin 2 (P56817 46-501): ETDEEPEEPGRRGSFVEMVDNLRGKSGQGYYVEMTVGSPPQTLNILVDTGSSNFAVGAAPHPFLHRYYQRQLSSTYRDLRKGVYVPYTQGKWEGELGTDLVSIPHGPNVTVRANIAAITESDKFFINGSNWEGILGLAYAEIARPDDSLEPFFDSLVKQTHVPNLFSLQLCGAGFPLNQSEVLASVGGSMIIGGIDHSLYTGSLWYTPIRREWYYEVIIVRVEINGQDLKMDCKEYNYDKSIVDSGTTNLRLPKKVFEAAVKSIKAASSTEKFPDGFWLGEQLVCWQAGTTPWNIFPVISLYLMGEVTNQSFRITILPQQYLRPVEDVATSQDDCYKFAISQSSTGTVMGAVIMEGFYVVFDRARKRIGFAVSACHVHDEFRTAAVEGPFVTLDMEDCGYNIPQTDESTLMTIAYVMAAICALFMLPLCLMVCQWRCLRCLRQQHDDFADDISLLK

Compound | Ki (memapsin 2) | Ki (cathepsin D) | Ki (memapsin 1) | IC50 [1]
4- or 6-fluoro-N3-(3-hydroxy-4-(3-methoxybenzylamino)-1-phenylbutan-2-yl)-N1-methyl-N1-((4-methylthiazol-2-yl)methyl)isophthalamide | < 300 nM | < 300 nM | < 300 nM | –
CCN(c1cc(C(=O)NC(C)c2ccccc2)cc(C(=O)NC(Cc2ccccc2)C(O)CNCc2cccc(OC)c2)c1)S(C)(=O)=O (stereo not drawn) [5-(N-ethylmethylsulfonamido)-N1-(3-hydroxy-4-(3-methoxybenzylamino)-1-phenylbutan-2-yl)-N3-(1-phenylethyl)isophthalamide] | 301 to 500 nM | < 300 nM | < 300 nM | < 1000 nM
COc1cccc(CNCC(O)C(Cc2ccccc2)NC(=O)c2cc(C(=O)NC(C)c3nc(C)oc3C)cc(N(C)S(C)(=O)=O)c2)c1 (stereo not drawn) [N1-(1-(2,5-dimethyloxazol-4-yl)ethyl)-N3-(3-hydroxy-4-(3-methoxybenzylamino)-1-phenylbutan-2-yl)-5-(N-methylmethylsulfonamido)isophthalamide] | > 501 nM | > 501 nM | > 501 nM | 1000 to 5000 nM
COc1cccc(CNCC(O)C(Cc2ccccc2)NC(=O)c2cc(C(=O)NC(C)c3ccc(F)cc3)cc(N(C)S(C)(=O)=O)c2)c1 (stereo not drawn) [N1-(1-(4-fluorophenyl)ethyl)-N3-(3-hydroxy-4-(3-methoxybenzylamino)-1-phenylbutan-2-yl)-5-(N-methylmethylsulfonamido)isophthalamide] | < 300 nM | < 300 nM | < 300 nM | < 1000 nM
COc1cccc(CNCC(O)C(CC(C)C)NC(=O)c2cc(C(=O)NC(C)c3ccccc3)cc(N(C)S(C)(=O)=O)c2)c1 (stereo not drawn) [N1-(2-hydroxy-1-(3-methoxybenzylamino)-5-methylhexan-3-yl)-5-(N-methylmethylsulfonamido)-N3-(1-phenylethyl)isophthalamide] | > 501 nM | – | > 501 nM | –
CC(NCC(O)C(Cc1ccccc1)NC(=O)c1cc(C(=O)NC(C)c2ccccc2)cc(N(C)S(C)(=O)=O)c1)c1ccccc1 (stereo not drawn) [N1-(3-hydroxy-1-phenyl-4-(1-phenylethylamino)butan-2-yl)-5-(N-methylmethylsulfonamido)-N3-(1-phenylethyl)isophthalamide] | < 300 nM | < 300 nM | 301 to 500 nM | < 1000 nM
Cc1csc(CN(C)C(=O)c2cccc(C(=O)NC(Cc3ccccc3)C(O)CNC(C)c3ccccc3)c2)n1 (stereo not drawn) [N1-(3-hydroxy-1-phenyl-4-(1-phenylethylamino)butan-2-yl)-N3-methyl-N3-((4-methylthiazol-2-yl)methyl)isophthalamide] | > 501 nM | > 501 nM | < 300 nM | 1000 to 5000 nM
CCC(NCC(O)C(Cc1ccccc1)NC(=O)c1cc(C(=O)NC(C)c2ccccc2)cc(N(C)S(C)(=O)=O)c1)c1ccccc1 (stereo not drawn) [N1-(3-hydroxy-1-phenyl-4-(1-phenylpropylamino)butan-2-yl)-5-(N-methylmethylsulfonamido)-N3-(1-phenylethyl)isophthalamide] | < 300 nM | < 300 nM | < 300 nM | < 1000 nM
CCC(NCC(O)C(Cc1ccccc1)NC(=O)c1cccc(C(=O)N(C)Cc2nc(C)cs2)c1)c1ccccc1 (stereo not drawn) [N1-(3-hydroxy-1-phenyl-4-(1-phenylpropylamino)butan-2-yl)-N3-methyl-N3-((4-methylthiazol-2-yl)methyl)isophthalamide] | > 501 nM | < 300 nM | > 501 nM | 1000 to 5000 nM
Cc1csc(CN(C)C(=O)c2cccc(C(=O)NC(Cc3ccccc3)C(O)CNCc3cccc(C(F)(F)F)c3)c2)n1 (stereo not drawn) [N1-(3-hydroxy-1-phenyl-4-(3-(trifluoromethyl)benzylamino)butan-2-yl)-N3-methyl-N3-((4-methylthiazol-2-yl)methyl)isophthalamide] | < 300 nM | < 300 nM | > 501 nM | < 1000 nM
CC(C)NC(=O)c1cccc(CNCC(O)C(Cc2ccccc2)NC(=O)c2cc(C(=O)NC(C)c3ccccc3)cc(N(C)S(C)(=O)=O)c2)c1 (stereo not drawn) [N1-(3-hydroxy-4-(3-(isopropylcarbamoyl)benzylamino)-1-phenylbutan-2-yl)-5-(N-methylmethylsulfonamido)-N3-(1-phenylethyl)isophthalamide] | > 501 nM | – | > 501 nM | > 5000 nM
COCc1cccc(CNCC(O)C(Cc2ccccc2)NC(=O)c2cc(C(=O)NC(C)c3ccccc3)cc(N(C)S(C)(=O)=O)c2)c1 (stereo not drawn) [N1-(3-hydroxy-4-(3-(methoxymethyl)benzylamino)-1-phenylbutan-2-yl)-5-(N-methylmethylsulfonamido)-N3-(1-phenylethyl)isophthalamide] | – | – | > 501 nM | > 5000 nM
COc1cccc(CNCC(O)C(Cc2ccccc2)NC(=O)c2cc(C(=O)NC(C)c3ccccc3)cc(N(C)S(C)(=O)=O)c2)c1 (stereo not drawn) [N1-(3-hydroxy-4-(3-methoxybenzylamino)-1-phenylbutan-2-yl)-5-(N-methylmethylsulfonamido)-N3-(1-phenylethyl)isophthalamide] | – | < 300 nM | < 300 nM | < 1000 nM
COc1cccc(CNCC(O)C(Cc2ccccc2)NC(=O)c2cc(C(=O)NC(C)c3cccc(OC)c3)cc(N(C)S(C)(=O)=O)c2)c1 (stereo not drawn) [N1-(3-hydroxy-4-(3-methoxybenzylamino)-1-phenylbutan-2-yl)-N3-(1-(3-methoxyphenyl)ethyl)-5-(N-methylmethylsulfonamido)isophthalamide] | < 300 nM | – | > 501 nM | < 1000 nM
COc1cncc(CNCC(O)C(Cc2ccccc2)NC(=O)c2cc(C(=O)NC(C)c3ccccc3)cc(N(C)S(C)(=O)=O)c2)c1 (stereo not drawn) [N1-(3-hydroxy-4-((5-methoxypyridin-3-yl)methylamino)-1-phenylbutan-2-yl)-5-(N-methylmethylsulfonamido)-N3-(1-phenylethyl)isophthalamide] | < 300 nM | < 300 nM | 301 to 500 nM | –
Cc1csc(CN(C)CC(O)C(Cc2ccccc2)NC(=O)c2cc(C(=O)NC(C)c3ccccc3)cc(N(C)S(C)(=O)=O)c2)n1 (stereo not drawn) [N1-(3-hydroxy-4-(methyl((4-methylthiazol-2-yl)methyl)amino)-1-phenylbutan-2-yl)-5-(N-methylmethylsulfonamido)-N3-(1-phenylethyl)isophthalamide] | > 501 nM | > 501 nM | > 501 nM | –
CC(NC(=O)c1cc(C(=O)NC(Cc2ccccc2)C(O)CNCc2cccc(COCc3ccccc3)c2)cc(N(C)S(C)(=O)=O)c1)c1ccccc1 (stereo not drawn) [N1-(4-(3-(benzyloxymethyl)benzylamino)-3-hydroxy-1-phenylbutan-2-yl)-5-(N-methylmethylsulfonamido)-N3-(1-phenylethyl)isophthalamide] | 301 to 500 nM | > 501 nM | < 300 nM | –
Cc1nc(CNCC(O)C(Cc2ccccc2)NC(=O)c2cc(C(=O)NC(C)c3ccccc3)cc(N(C)S(C)(=O)=O)c2)c(C)o1 (stereo not drawn) [N1-(4-((2,5-dimethyloxazol-4-yl)methylamino)-3-hydroxy-1-phenylbutan-2-yl)-5-(N-methylmethylsulfonamido)-N3-(1-phenylethyl)isophthalamide] | – | > 501 nM | > 501 nM | 1000 to 5000 nM
COc1cccc(CNCC(O)C(Cc2ccccc2)NC(=O)c2cccc(C(=O)N(Cc3nc(C)cs3)C3CC3)c2)c1 (stereo not drawn) [N1-cyclopropyl-N3-(3-hydroxy-4-(3-methoxybenzylamino)-1-phenylbutan-2-yl)-N1-((4-methylthiazol-2-yl)methyl)isophthalamide] | < 300 nM | < 300 nM | > 501 nM | –
